Where no end group is shown, it is not given here.
How the values were obtained:
[1] = mouse, in vivo, sc
Procedure: In order to investigate this assumption, fluorescence-labeled compounds were injected together subcutaneously into the flank of mice. At different time points after this treatment, injection sites were inspected for the presence of labeled compounds.
Experimental Groups (1 Mouse/Group 1/Indicated Time Point, 3 Mice/Group 2–4/time Point) • 1. untreated • 2. TRP-2181-188-FITC • 3. pR60-TRITC • 4. CpG-ODN1668-Cy5 • 5. TRP-2-FITC+pR60-TRITC • 6. TRP-2181-188-FITC+CpG-ODN-Cy5 • 7. pR60-TRITC+CpG-ODN 1668-Cy5 • 8. TRP-2 181-188-FITC+pR 60-TRITC+CpG-ODN 1668-Cy5
On day 0 mice were injected subcutaneously into the right flank with a total volume of 100 μl containing the above mentioned compounds. Animals were sacrificed at day 4 after injection and photos were taken from the injection sites (FIG. 3).

human dendritic cells = assay: Polyinosinic-polycytidylic acid-induced cytokine production by human dendritic cells; type: cell-based; conditions: human dendritic cells in vitro
[2] = system: mouse bone marrow-derived CD11c+ dendritic cells; assay: Cytokine production by dendritic cells incubated with poly-L-arginine and/or CpG-ODN (example 5); type: cell-based; conditions: CD11c+ dendritic cells incubated in vitro
Procedure: In parallel, in vitro studies were performed to clarify whether the complexation of CpG-ODN by poly-L-arginine can also directly influence the stimulation of mouse bone marrow-derived CD11c^+ dendritic cells by CpG-ODN concerning the production of TNF-α and IL-6. For this purpose, CD11c^+ dendritic cells were incubated either with poly-L-arginine, CpG-ODN or the combination of poly-L-arginine and CpG-ODN (example 5). The levels of TNF-a and IL-6 were determined in the supernatants derived from these cultures.

TRP-2181-188-peptide-FITC: FITC-labeled TRP-2-Peptide (VYDFFVWL), MHC class I (H-2Kb)-restricted epitope of mouse tyrosinase related protein-2 (not fully specified (N-terminus); also: FITC label; UniProt P29812 181-188, looked up, fragment)
TRP-2 peptide-FITC detectable at the injection site [1]: not detectable at the injection site at day 4

Poly-L-Arginine
polyinosinic-polycytidylic acid-induced production of pro-inflammatory cytokines (human dendritic cells): inhibits
IL-6 in culture supernatants [2]: neither TNF-α nor IL-6 were detectable
TNF-α in culture supernatants [2]: neither TNF-α nor IL-6 were detectable

Source: US7244438B2, “Uses for polycationic compounds” (Intercell AG, priority 2001, dated 2007)
